Data as given in PubChem BioAssay AID1919002 (Molecular Pharmacology Branch, DTP, NCI, 2023).

Tested on: 743489-274-T-PDC complex spheroid growth
Assay: Anticancer human tumor 743489-274-T-PDC patient-derived renal cell carcinoma cell line growth inhibition [AhR]
Conditions: for IC50: curve of first compound; for viability, T/C: stronger effect = lower value
In short: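 Spheroids combined tumor cells with HUVEC endothelial cells and human MSCs as stroma. AhR antagonists were paired with standard or investigational drugs, each dosed in half-log steps down from near clinical Cmax, or from 10 microM where Cmax was unknown.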
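Also: spheroids exposed to agents for 7 days before readout.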
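For viability, T/C in this document: 100% = DMSO vehicle control wells.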

For `CC1COCCN1c1cc(-c2ccnn2C)c2ccnc(-c3ccn[nH]3)c2n1` (stereo not given) + CC(CO)NC(=O)c1cc(-c2ccc(Cl)cc2)nn(-c2cnn(C)c2)c1=O, the IC50 (second compound 0.1 µM) was greater than 1000 nM, the IC50 (second compound 0.316 µM) was greater than 1000 nM and the IC50 (second compound 1 µM) was greater than 1000 nM. The IC50 (second compound 3.16 µM) was greater than 1000 nM, the IC50 (second compound 10 µM) was greater than 1000 nM and the viability, T/C (second compound 0.1 µM, first compound 0.00316 µM) was 105%. It also gave a viability, T/C (second compound 0.1 µM, first compound 0.01 µM) of 97.6%, a viability, T/C (second compound 0.1 µM, first compound 0.0316 µM) of 99.9% and a viability, T/C (second compound 0.1 µM, first compound 0.1 µM) of 91.4%. It also gave a viability, T/C (second compound 0.1 µM, first compound 0.316 µM) of 99.2%, a viability, T/C (second compound 0.1 µM, first compound 1 µM) of 88.8% and a viability, T/C (second compound 0.316 µM, first compound 0.00316 µM) of 92%. For the same molecule, the viability, T/C (second compound 0.316 µM, first compound 0.01 µM) was 97.7%, the viability, T/C (second compound 0.316 µM, first compound 0.0316 µM) was 93.9% and the viability, T/C (second compound 0.316 µM, first compound 0.1 µM) was 97.2%. For the same molecule, the viability, T/C (second compound 0.316 µM, first compound 0.316 µM) was 93.4%, the viability, T/C (second compound 0.316 µM, first compound 1 µM) was 71.5% and the viability, T/C (second compound 1 µM, first compound 0.00316 µM) was 87.6%. For the same molecule, the viability, T/C (second compound 1 µM, first compound 0.01 µM) was 90%, the viability, T/C (second compound 1 µM, first compound 0.0316 µM) was 93.4% and the viability, T/C (second compound 1 µM, first compound 0.1 µM) was 96.2%. It also gave a viability, T/C (second compound 1 µM, first compound 0.316 µM) of 88.9%, a viability, T/C (second compound 1 µM, first compound 1 µM) of 81.8% and a viability, T/C (second compound 3.16 µM, first compound 0.00316 µM) of 112%. For the same molecule, the viability, T/C (second compound 3.16 µM, first compound 0.01 µM) was 91.7%, the viability, T/C (second compound 3.16 µM, first compound 0.0316 µM) was 105% and the viability, T/C (second compound 3.16 µM, first compound 0.1 µM) was 92.2%. It also gave a viability, T/C (second compound 3.16 µM, first compound 0.316 µM) of 88.5%, a viability, T/C (second compound 3.16 µM, first compound 1 µM) of 65.6% and a viability, T/C (second compound 10 µM, first compound 0.00316 µM) of 112%. The viability, T/C (second compound 10 µM, first compound 0.01 µM) was 91.8%, the viability, T/C (second compound 10 µM, first compound 0.0316 µM) was 92.1% and the viability, T/C (second compound 10 µM, first compound 0.1 µM) was 93.2%. The viability, T/C (second compound 10 µM, first compound 0.316 µM) was 95.9% and the viability, T/C (second compound 10 µM, first compound 1 µM) was 76.8%.
